In patent US11897851B2, “Heterocyclic GLP-1 agonists” (Gasherbrum Bio, Inc., priority 2021, dated 2024) one finds EC50 data, which are given here for 18 compounds.

For this experiment, the target named is T1, GLP-1 Receptor (Homo sapiens, UniProt P43220).
T1 construct: host or cells: HEK293/GLP1R/CRE-LUC (HEK293/CRE-Luc stably expressing the GLP-1 receptor)
The experiment in a line: GLP-1R agonist cAMP stimulation assay (HEK293/GLP1R/CRE-LUC cells, Cisbio cAMP dynamic 2 kit).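 Note: compounds tested in half-log serial dilution, cAMP detected with cAMP-d2 and anti-cAMP cryptate antibody reagents after 1 h at room temperature.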 The class given is cell-based. As to conditions: HEK293/CRE-Luc cell line stably expressing the GLP-1 Receptor; 1000 cells/well; 30 min at 37° C.; 0.5 mM IBMX, 0.1% BSA; read-out: GLP1R cAMP Stimulation DR: EC50.

Molecules are shown by their SMILES. Some results are limits rather than exact numbers.

T1 sequence (P43220 24-463, species assumed): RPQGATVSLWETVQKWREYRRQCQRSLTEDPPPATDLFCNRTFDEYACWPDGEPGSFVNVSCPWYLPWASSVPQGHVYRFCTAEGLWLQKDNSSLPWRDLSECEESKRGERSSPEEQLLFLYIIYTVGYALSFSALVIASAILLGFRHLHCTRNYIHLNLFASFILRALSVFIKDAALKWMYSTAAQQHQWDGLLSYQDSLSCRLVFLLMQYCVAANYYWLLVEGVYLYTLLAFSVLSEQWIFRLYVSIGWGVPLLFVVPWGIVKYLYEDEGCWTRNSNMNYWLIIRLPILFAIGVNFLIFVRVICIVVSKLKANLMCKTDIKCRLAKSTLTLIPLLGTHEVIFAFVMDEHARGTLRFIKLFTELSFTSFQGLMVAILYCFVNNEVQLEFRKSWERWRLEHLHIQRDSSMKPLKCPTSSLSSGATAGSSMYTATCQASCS

`CC1(C)C[C@H](Cn2c(/C=C/C(=O)O)cnc2CN2CCC(c3cccc4c3O[C@@](C)(c3ccc(Cl)cc3F)O4)CC2)CO1` [Compound 171b, (E)-3-(2-((4-((S)-2-(4-chloro-2-fluorophenyl)-2-methylbenzo[d][1,3]dioxol-4-yl)piperidin-1-yl)methyl)-1-(((R)-5,5-dimethyltetrahydrofuran-3-yl)methyl)-1H-imidazol-5-yl)acrylic acid]: the EC50 is 17 nM.
Under `CO[C@@H](C)Cn1c(/C=C/C(=O)O)cnc1CN1CCC(c2cccc3c2O[C@@](C)(c2ccc(Cl)cc2F)O3)CC1` [Compound 172a, (E)-3-(2-((4-((S)-2-(4-chloro-2-fluorophenyl)-2-methylbenzo[d][1,3]dioxol-4-yl)piperidin-1-yl)methyl)-1-((S)-2-methoxypropyl)-1H-imidazol-5-yl)acrylic acid] stands 0.048 nM; under `CC1(c2ccc(Cl)cc2F)Oc2cccc(C3CCN(Cc4ncc(/C=C/C(=O)O)n4CC4CN(S(C)(=O)=O)C4)CC3)c2O1` (stereo not drawn) [Compound 174, (E)-3-(2-((4-(2-(4-chloro-2-fluorophenyl)-2-methylbenzo[d][1,3]dioxol-4-yl)piperidin-1-yl)methyl)-1-((1-(methylsulfonyl)azetidin-3-yl)methyl)-1H-imidazol-5-yl)acrylic acid], 6.4 nM; under `CC(=O)N(C)CCn1c(/C=C/C(=O)O)cnc1CN1CCC(c2cccc3c2OC(C)(c2ccc(Cl)cc2F)O3)CC1` (stereo not drawn) [Compound 175, (E)-3-(2-((4-(2-(4-chloro-2-fluorophenyl)-2-methylbenzo[d][1,3]dioxol-4-yl)piperidin-1-yl)methyl)-1-(2-(N-methylacetamido)ethyl)-1H-imidazol-5-yl)acrylic acid], 0.047 nM.
Under `CN(CCn1c(/C=C/C(=O)O)cnc1CN1CCC(c2cccc3c2OC(C)(c2ccc(Cl)cc2F)O3)CC1)S(C)(=O)=O` (stereo not drawn) [Compound 176, (E)-3-(2-((4-(2-(4-chloro-2-fluorophenyl)-2-methylbenzo[d][1,3]dioxol-4-yl)piperidin-1-yl)methyl)-1-(2-(N-methylmethylsulfonamido)ethyl)-1H-imidazol-5-yl)acrylic acid] stands 0.058 nM; under `CC1(c2ccc(Cl)cc2F)Oc2cccc(C3CCN(Cc4ncc(/C=C/C(=O)O)n4CC4CC(O)C4)CC3)c2O1` (stereo not drawn) [Compound 177, (E)-3-(2-((4-(2-(4-chloro-2-fluorophenyl)-2-methylbenzo[d][1,3]dioxol-4-yl)piperidin-1-yl)methyl)-1-((3-hydroxycyclobutyl)methyl)-1H-imidazol-5-yl)acrylic acid], 0.18 nM; under `CC1(c2ccc(Cl)cc2F)Oc2cccc(C3CCN(Cc4ncc(/C=C/C(=O)O)n4C4CC(O)C4)CC3)c2O1` (stereo not drawn) [Compound 178, (E)-3-(2-((4-(2-(4-chloro-2-fluorophenyl)-2-methylbenzo[d][1,3]dioxol-4-yl)piperidin-1-yl)methyl)-1-(3-hydroxycyclobutyl)-1H-imidazol-5-yl)acrylic acid], 1.2 nM.
As to `CC1(c2ccc(Cl)cc2F)Oc2cccc(N3CCN(Cc4ncc(/C=C/C(=O)O)n4C[C@@H]4CCO4)CC3)c2O1` (stereo partly drawn) [Compound 179, (E)-3-(2-((4-(2-(4-chloro-2-fluorophenyl)-2-methylbenzo[d][1,3]dioxol-4-yl)piperazin-1-yl)methyl)-1-(((S)-oxetan-2-yl)methyl)-1H-imidazol-5-yl)acrylic acid], the EC50 amounted to 0.036 nM.
Consider `C[C@H]1CN(c2cccc3c2OC(C)(c2ccc(Cl)cc2F)O3)CCN1Cc1ncc(/C=C/C(=O)O)n1C[C@@H]1CCO1` (stereo partly drawn) [Compound 180, (E)-3-(2-(((2S)-4-(2-(4-chloro-2-fluorophenyl)-2-methylbenzo [d][1,3]dioxol-4-yl)-2-methylpiperazin-1-yl)methyl)-1-(((S)-oxetan-2-yl)methyl)-1H-imidazol-5-yl)acrylic acid], for which the half-maximal effective concentration (EC50) came to 0.026 nM.
Under `CC1(c2ccc(Cl)cc2F)Oc2cccc(C3CCN(Cc4ncc(/C=C/C(=O)O)n4Cc4ccno4)CC3)c2O1` (stereo not drawn) [Compound 181, (E)-3-(2-((4-(2-(4-chloro-2-fluorophenyl)-2-methylbenzo[d][1,3]dioxol-4-yl)piperidin-1-yl)methyl)-1-(isoxazol-5-ylmethyl)-1H-imidazol-5-yl)acrylic acid] stands 4.1 nM.
The value for `CC1(c2ccc(Cl)cc2F)Oc2cccc(C3CCN(Cc4nc(/C=C/C(=O)O)cn4Cc4ccno4)CC3)c2O1` (stereo not drawn) [Compound 182, (E)-3-(2-((4-(2-(4-chloro-2-fluorophenyl)-2-methylbenzo[d][1,3]dioxol-4-yl)piperidin-1-yl)methyl)-1-(isoxazol-5-ylmethyl)-1H-imidazol-4-yl)acrylic acid] was 93 nM; that for `CC1(c2ccc(Cl)cc2F)Oc2cccc(C3CCN(Cc4ncc(/C=C/C(=O)O)n4Cc4ncco4)CC3)c2O1` (stereo not drawn) [Compound 183, (E)-3-(2-((4-(2-(4-chloro-2-fluorophenyl)-2-methylbenzo[d][1,3]dioxol-4-yl)piperidin-1-yl)methyl)-1-(oxazol-2-ylmethyl)-1H-imidazol-5-yl)acrylic acid] was 0.015 nM.
The value for `CCc1ncoc1Cn1c(/C=C/C(=O)O)cnc1CN1CCC(c2cccc3c2OC(C)(c2ccc(Cl)cc2F)O3)CC1` (stereo not drawn) [Compound 184, (E)-3-(2-((4-(2-(4-chloro-2-fluorophenyl)-2-methylbenzo[d][1,3]dioxol-4-yl)piperidin-1-yl)methyl)-1-((4-ethyloxazol-5-yl)methyl)-1H-imidazol-5-yl)acrylic acid] was 0.24 nM; that for `CCC(O)Cn1c(/C=C/C(=O)O)cnc1CN1CCC(c2cccc3c2OC(C)(c2ccc(Cl)cc2F)O3)CC1` (stereo not drawn) [Compound 185, (E)-3-(2-((4-(2-(4-chloro-2-fluorophenyl)-2-methylbenzo[d][1,3]dioxol-4-yl)piperidin-1-yl)methyl)-1-(2-hydroxybutyl)-1H-imidazol-5-yl)acrylic acid] was 20 nM; that for `O=C(O)/C=C/c1cnc(CN2CCC(c3cccc4c3OC[C@@H](c3ccc(Cl)cc3)O4)CC2)n1Cc1ncco1` [Compound 186a, (R,E)-3-(2-((4-(2-(4-chlorophenyl)-2,3-dihydrobenzo [b][1,4]dioxin-5-yl)piperidin-1-yl)methyl)-1-(oxazol-2-ylmethyl)-1H-imidazol-5-yl)acrylic acid] was 0.41 nM.
As to `O=C(O)/C=C/c1cnc(CN2CCC(c3cccc4c3OC[C@@H](c3ccc(Cl)cc3)O4)CC2)n1Cc1ccno1` [Compound 187a, (R,E)-3-(2-((4-(2-(4-chlorophenyl)-2,3-dihydrobenzo [b][1,4]dioxin-5-yl)piperidin-1-yl)methyl)-1-(isoxazol-5-ylmethyl)-1H-imidazol-5-yl)acrylic acid], the EC50 is more than 1000 nM.
The value for `CCc1ncsc1Cn1c(/C=C/C(=O)O)cnc1CN1CCC(c2cccc3c2OC(C)(c2ccc(Cl)cc2F)O3)CC1` (stereo not drawn) [Compound 188, (E)-3-(2-((4-(2-(4-chloro-2-fluorophenyl)-2-methylbenzo[d][1,3]dioxol-4-yl)piperidin-1-yl)methyl)-1-((4-ethylthiazol-5-yl)methyl)-1H-imidazol-5-yl)acrylic acid] was 0.22 nM; that for `Cc1ncsc1Cn1c(/C=C/C(=O)O)cnc1CN1CCC(c2cccc3c2OC(C)(c2ccc(Cl)cc2F)O3)CC1` (stereo not drawn) [Compound 189, (E)-3-(2-((4-(2-(4-chloro-2-fluorophenyl)-2-methylbenzo[d][1,3]dioxol-4-yl)piperidin-1-yl)methyl)-1-((4-methylthiazol-5-yl)methyl)-1H-imidazol-5-yl)acrylic acid] was 0.022 nM.

The term EC50 denotes the midpoint of the concentration-response curve.
